Converted amounts (≈) assume the structure as drawn. “And” between values parts separate entries of the source, which are not always exact repeats. Identical values can stand only once. “Also recorded” adds a separate entry of the source. Like-named read-outs stand apart in the source and are kept apart here. Where a SMILES comes first, the peptide text is derived from it. Bridges are numbered along the chain shown (N, C = ends). [ ]: non-standard residue; d: D form. The star is where a group is joined. Octanoyl = CCCCCCCC(=O)*; Dab = NCC[C@H](N)C(=O)O; Abu = CC[C@H](N)C(=O)O
Tests used:
P. aeruginosa = assay: Synergy studies with rifampin; format: cell-based, Pseudomonas aeruginosa; conditions: against P. aeruginosa
Procedure: Synergy studies were performed by using polymyxin derivatives in combination with rifampin, a model compound for such antibacterial agents that the intact outer membrane of Gram-negative bacteria acts as a permeability barrier.

[1] = 7-day IV infusion toxicity (nephrotoxicity) study in cynomolgus monkeys; conditions: for unscheduled necropsy / euthanized due to severe nephrotoxic effects: 3 animals per group
Procedure: In vivo toxicity and toxicokinetic studies were performed by using cynomolgus monkeys. The laboratory that performed the animal studies is accredited by the Association for Assessment and Accreditation of Laboratory Animal Care (AAALAC), has an Animal Welfare Assurance issued by the Office of Laboratory Animal Welfare (OLAW), is registered with the United States Department of Agriculture (USDA), and has an Institutional Animal Care and Use Committee (IACUC) responsible for compliance with applicable laws and regulations concerning the humane care and use of laboratory animals.
Naïve female cynomolgus monkeys were acclimatized to study room for 28 days during which each animal was implanted with a permanent indwelling femoral catheter to permit continuous intravenous infusions. The animals were allowed surgical recovery period of at least 2 weeks before initiating dosing.
Polymyxin B sulfate was from Sigma-Aldrich (catalogue number P0972, lot number BCBF8382V). On each day of use, appropriate quantities of NAB739, NAB815 or polymyxin B were weighed and dissolved in appropriate volumes of sterile saline to prepare a stock solution for each test article and positive control. A correction factor was used in the stock solution preparation to account for both the purity and sulfate content in each test article. Accordingly, the dose (such as 36 mg/kg/d) refers to the dose of the pure peptide as its free base form, not as its sulfate salt.
The doses were the following: polymyxin B 18 mg/kg/d (Group 1), polymyxin B 24 mg/kg/d (Group 2), NAB739 24 mg/kg/d (Group 3), NAB739 36 mg/kg/d (Group 4), NAB815 24 mg/kg/d (Group 5), NAB815 36 mg/kg/d (Group 6). Three animals were included in each study groups.
(§1) For seven days, the animals were dosed by intravenous (IV) infusion three times daily (TID) at a dose volume of 10 mL/kg for 1 hour (±10 minutes), 8±0.5 hours apart. The day of initial dose administration was designated study Day 1, with subsequent days consecutively numbered. Days prior to the initial dose administration were consecutively numbered with the final day of acclimation referenced as Day −1.
(§2) The following parameters were evaluated at designed intervals: clinical observations, body weights, clinical pathology (hematology, coagulation, serum chemistry, urinalysis including urine sediments and urine chemistry), toxicokinetics (plasma and urine) and anatomic pathology (kidney). In cases of animals sacrificed on an unscheduled basis, samples were taken on the day of the sacrifice.
On the day of necropsy, animals were sedated with ketamine, weighed, and anesthetized with an intravenous injection of a commercial pentobarbital and phenytoin solution, followed by exsanguinations.
At necropsy, gross observations and organ weights were recorded, and specific tissues were collected. Histopathology was conducted on sections of kidney stained with hematoxylin and eosin (H&E).
The figures also show Urine N-acetyl-β-D-glucosaminidase/urine creatinine ratio (U-NAG/Crea; FIG. 3) and Urine Gamma Glutamyltransferase/urine creatinine ratio (U-GGT/Crea; FIG. 4), both urine biomarkers for kidney injury, in those animals. S-Crea and U-Crea were measured by using an Olympus Analyzer (OA) and the modified Jaffe method, S-BUN by using OA and urease/L-glutamate dehydrogenase. U-NAG was measured by using OA/enzymatic, and U-GGT by using OA and glutamyl-carboxy-p-nitroanilide IFCC.
The presence of the following nephro-pathological parameters was recorded in each animal: tubular basophilia (re-generation), tubular degeneration/necrosis, infiltration (by mononuclear and/or mixed inflammatory cells), tubular dilatation, and tubular casts.

[2] = Toxicokinetics (plasma and urine) in cynomolgus monkeys; conditions: for AUC: plasma
Procedure: as §1, §2
Plasma and urine concentrations for toxicokinetic (TK) studies were determined by using liquid chromatograph interfaced with a mass spectrometer after precipitation of proteins. A sample (100 μL) was mixed with internal standard solution in water:formic acid (99:1 v/v; […]). Then, 600 μL of 100:1 acetonitrile:formic acid was added. The plates were centrifuged at 3200 rpm for 5 minutes. Using a Tomtec Quadra96, a 450 μL aliquot was transferred to a new 96-well plate and dried under nitrogen at 40° C. Then, 200 μL of water:methanol:formic acid (85:15:1 1 v/v) was added and the plate sealed for LC-MS/MS injection. LC-MS system consisted of Waters Acquity liquid chromatograph interfaced with a Thermo Scientific TSQ Quantitative triple quadrupole MS with ionization in the positive ion mode. Each sample (20 μL) was injected onto a Waters Acquity BEH Shield RP18 column (2.1×50 mm; 1.7 μm) equilibrated at 50° C. Mobile Phase A was 85:15:1 v/v water:methanol:formic acid. Mobile Phase B was 50:50:1 v/v acetonitrile:methanol:formic acid.
Peak area ratios from the calibration standard responses were regressed using a (1/concentration^2) linear fit for polymyxin B using colistin as the internal standard. For NAB739 and NAB815, peak areas from the calibration standard responses were regressed using a (1/concentration^2) quadratic fit (without the use of an internal standard).
The regression models were chosen based upon the behavior of the analytes across the concentration range used during development.
Toxicokinetic analysis was performed by using WinNonlin Phoenix version 6.3 software (Pharsight, Cary, N.C.). For plasma TK, noncompartmental IV infusion model was used.
In the cynomolgus monkey studies described in Example 3, where the peptides were administered as a 1-hour intravenous infusion three times daily, plasma and urine levels of the peptides were determined.

K. pneumoniae JMI 27072 = conditions: K. pneumoniae JMI 27072
E. coli JMI 109 = conditions: alone; E. coli JMI 109 (polymyxin-nonsusceptible)
P. aeruginosa ATCC 27853 = assay: MIC assay (CLSI broth microdilution; checkerboard with rifampin); conditions: P. aeruginosa ATCC 27853
[3] = alone, K. pneumoniae JMI 27068 (polymyxin-nonsusceptible)
[4] = in combination with rifampin 0.25 μg/mL, K. pneumoniae JMI 27068
[5] = in combination with rifampin 0.25 μg/mL

## CCCCCCCC(=O)N[C@@H](CCN)C(=O)N[C@H](C(=O)N[C@@H](C(=O)N[C@H]1CCNC(=O)[C@H]([C@@H](C)O)NC(=O)[C@H](CCN)NC(=O)[C@H](CC)NC(=O)[C@H](CC(C)C)NC(=O)[C@@H](Cc2ccccc2)NC(=O)[C@H](CCN)NC1=O)[C@H](C)O)[C@@H](C)O [NAB815, octanoyl-αDab-Thr-DThr-[cyclo-α,γDab-αDab-DPhe-Leu-Abu-αDab-Thr]] (Octanoyl-[Dab]T[dT][Dab][Dab][dF]L[Abu][Dab]T; lactam 4-C)
P. aeruginosa
  synergistic activity with rifampin: lacked any notable synergistic activity with rifampin
[1]; 24 mg/kg/d IV TID 7 days
  kidney injury markers (S-BUN, S-Crea, U-NAG/Crea, U-GGT/Crea): None of the parameters was elevated
[1]; 36 mg/kg/d IV TID 7 days
  kidney injury markers (S-BUN, S-Crea, U-NAG/Crea, U-GGT/Crea): only minor if any elevations in the four parameters
  unscheduled necropsy / euthanized due to severe nephrotoxic effects: underwent no prescheduled necropsy
[1]; 36 mg/kg/d IV TID, H&E kidney sections, per animal(s)
  kidney histopathology findings (grade of nephro-pathological parameters): moderate findings, both in one parameter only; also recorded: no other than minimal or mild findings; also recorded: less severe nephropathic alterations with NAB815
[2]; cynomolgus monkey, in vivo, 36 mg/kg/day, AUCs, dosed at 36 mg/kg/d, day 1
  AUC: 153 µg·h/mL
[2]; cynomolgus monkey, in vivo, iv, 8 mg/kg, AUCs 0-8 h, after infusion of 8 mg/kg, day 1
  AUC: 102 µg·h/mL
[2]; cynomolgus monkey, in vivo, iv, 8 mg/kg, AUCs 0-8 h, after infusion of 8 mg/kg, day 7
  AUC: 110 µg·h/mL
[2]; cynomolgus monkey, in vivo, iv, 36 mg/kg/day, AUCs, dosed at 36 mg/kg/d, day 7
  AUC: 205 µg·h/mL
[2]; female, cynomolgus monkey, in vivo, iv, 36 mg/kg/d, urinary recoveries (0-8 h urine collection), 36 mg/kg/d, day 7, each animal
  dose excreted: 33.9%
K. pneumoniae JMI 27072; alone
  MIC: 2 to 4 µg/mL
K. pneumoniae JMI 27068; [3]
  MIC: 128 µg/mL (≈ 109 µM)
K. pneumoniae JMI 27068; [4]
  MIC: 4 µg/mL

## Polymyxin B
[1]; 18 mg/kg/d IV TID 7 days
  unscheduled necropsy / euthanized due to severe nephrotoxic effects: all the three animals receiving polymyxin B at 18 mg/kg/d had to be euthanized; also recorded: on Day 4 for one animal receiving 18 mg/kg/d; also recorded: on Day 5 for two animals receiving 18 mg/kg/d
[1]; 24 mg/kg/d IV TID 7 days
  unscheduled necropsy / euthanized due to severe nephrotoxic effects: Two animals receiving polymyxin B at 24 mg/kg/d; also recorded: for two animals receiving 24 mg/kg/d
[1]; 18 and 24 mg/kg/d IV TID, all the six animals
  S-BUN, S-Crea and U-GGT/Crea: remarkably increased
[1]; 18 and 24 mg/kg/d IV TID, six animals
  U-NAG/Crea: remarkably increased in five of the animals
[2]; after infusion of 8 mg/kg, given for each animal, 8 mg/kg
  0-8 h recovery in urine (of the dose): 1% and 2% (2×)
K. pneumoniae JMI 27072; alone
  MIC: 2 µg/mL
K. pneumoniae JMI 27072; [5]
  MIC: 1 µg/mL
A. baumannii JMI 48125; alone
  MIC: 2 µg/mL
A. baumannii JMI 48125; [5]
  MIC: 1 µg/mL
E. coli JMI 109
  MIC: 4 to 8 µg/mL
K. pneumoniae JMI 27068; [3]
  MIC: 64 µg/mL
K. pneumoniae JMI 27068; [4]
  MIC: 1 µg/mL
P. aeruginosa ATCC 27853; alone
  MIC: 2 µg/mL
P. aeruginosa ATCC 27853; [5]
  MIC: 1 µg/mL

Reference: patent US9763996B2, “Polymyxin derivative and uses thereof” (Northern Antibiotics Ltd., priority 2015, dated 2017)
